Experimental data published in ChEMBL document CHEMBL1255322, “In vivo therapeutic effect of gatifloxacin on BALB/c mice infected with Nocardia brasiliensis” (Antimicrob Agents Chemother, 2008).
Values after ≈ are worked out from the molar mass of the structure shown. Active and inactive are the calls of the source. No cut-off for these calls is given here.

Tests used:
Nocardia brasiliensis [1] = experiment: Antimicrobial activity against Nocardia brasiliensis HUJEG-1 by broth macrodilution method; assay type: functional
[2] = Cmax in BALB/c mouse serum at 100 mg/kg, sc TID for 4 weeks by HPLC method; assay type: ADME, organism-based; parameters: dose 100 mg/kg, route subcutaneous
Nocardia brasiliensis [3] = experiment: Antimicrobial activity against Nocardia brasiliensis HUJEG-1 infected in BALB/c mouse assessed as decrease in number of lesions on foot-pad at 100 mg/kg, sc TID for 4 weeks; assay type: functional, organism-based; parameters: dose 100 mg/kg
Nocardia brasiliensis [4] = experiment: Antimicrobial activity against Nocardia brasiliensis HUJEG-1 infected in BALB/c mouse assessed as decrease in number of lesions on foot-pad at 25 mg/kg, sc TID for 4 weeks; assay type: functional, organism-based; parameters: dose 25 mg/kg
[5] = Cmax in BALB/c mouse serum at 25 mg/kg, sc TID for 4 weeks by HPLC method; assay type: ADME, organism-based; parameters: dose 25 mg/kg, route subcutaneous

MIC (Nocardia brasiliensis [1]) [µg/mL]	SMILES	Activity (Nocardia brasiliensis [1])	also measured
–	COc1c(N2C[C@@H]3CCCN[C@@H]3C2)c(F)cc2c(=O)c(C(=O)O)cn(C3CC3)c12	Active	–
–	C[C@H]1NCc2cc(-c3ccc4c(=O)c(C(=O)O)cn(C5CC5)c4c3OC(F)F)ccc21	Active	–
0.25 (≈ 0.666 µM)	COc1c(N2CCNC(C)C2)c(F)cc2c(=O)c(C(=O)O)cn(C3CC3)c12 (stereo not drawn) [GATIFLOXACIN]	–	Cmax [2]: 18000 ng/mL; Activity (Nocardia brasiliensis [3]): Active
0.12 (≈ 0.356 µM)	CC(=O)NC[C@H]1CN(c2ccc(N3CCOCC3)c(F)c2)C(=O)O1 [LINEZOLID]	–	Activity (Nocardia brasiliensis [4]): inactive; Cmax [5]: 50000 ng/mL
